Assay results taken from patent US5659038A, “5-vinyl-and 5-ethinyl-quinolone- and -naphthyridone-carboxylic acids” (Bayer Aktiengesellschaft, priority 1994, dated 1997).
In brackets after ≈: the same amount, converted by molar mass. Structures can show the parent of a compound that is named as a salt. Where two headings read alike, the source gives them in different places.

Tests used:
Assay type in all cases: cell-based
[1] = test system: Staphylococcus aureus ICB 25701; experiment: MIC, serial agar dilution
Protocol: (§1) The minimum inhibitory concentrations (MICs) were determined in serial dilution tests using Iso-Sensitest Agar (Oxoid). For each test substance, a series of agar plates was prepared which contained concentrations of the active compound which decreased as a result of dilution to twice the volume each time. The agar plates were inoculated using a Multipoint Inoculator (Denley). For inoculation, overnight cultures of the pathogens were used which had previously been diluted to such a concentration that each inoculation point contained approximately 10^4 colony-forming particles. The inoculated agar plates were incubated at 37° C., and the microbial growth was determined after approximately 20 hours. The MIC value (μg/ml) indicates the lowest concentration of active compound at which no growth was discernible with the naked eye.

[2] = test system: Enterococcus faecalis 9790; experiment: MIC, serial agar dilution
Protocol: as §1

[3] = test system: Staphylococcus aureus ATTC 29213; experiment: MIC, serial agar dilution
Protocol: as §1

[4] = test system: Enterococcus faecalis 27101; experiment: MIC, serial agar dilution
Protocol: as §1

E. coli Neumann = experiment: MIC, serial agar dilution; conditions: Escherichia coli
Protocol: as §1

[5] = test system: Staphylococcus aureus 133; experiment: MIC, serial agar dilution
Protocol: as §1

Enterobater aer.ICB 5240 = experiment: MIC, serial agar dilution
Protocol: as §1

[6] = test system: Enterobater cloaceae 2427; experiment: MIC, serial agar dilution
Protocol: as §1

E. coli 21 Bui = experiment: MIC, veterinary microorganisms; conditions: Escherichia coli, 20 h
Protocol: as §1
(§2) Table 3 lists MIC values of compounds according to the invention against microorganisms which aye specific to veterinary medicine. The comparison compound shown in this case is enrofloxacin (ENRO), which is a therapeutic used in veterinary medicine.

E. coli G293 Lh = experiment: MIC, veterinary microorganisms; conditions: Escherichia coli, G293LH, 20 h
Protocol: as §1, §2

Staph. Z433-4 LH = experiment: MIC, veterinary microorganisms; conditions: 20 h
Protocol: as §1, §2

Staph. Ky 469 We = experiment: MIC, veterinary microorganisms; conditions: 20 h
Protocol: as §1, §2

Staph. Z 318 Lh = experiment: MIC, veterinary microorganisms; conditions: 20 h
Protocol: as §1, §2

[7] = Staphylococcus aureus, ICB25701, 20 h
[8] = Enterococcus faecalis 9790, Iso-Sensitest Agar, 37° C., approximately 20 hours, read-out: MIC
[9] = ATTC29213, Staphylococcus aureus ATTC 29213, Iso-Sensitest Agar, 37° C., approximately 20 hours, read-out: MIC
[10] = Enterococcus faecalis 27101, Iso-Sensitest Agar, 37° C., approximately 20 hours, read-out: MIC
[11] = E. coli Neumann, Iso-Sensitest Agar, 37° C., approximately 20 hours, read-out: MIC
[12] = Staphylococcus aureus 133, Iso-Sensitest Agar, 37° C., approximately 20 hours, read-out: MIC
[13] = Enterobater aer.ICB 5240, Iso-Sensitest Agar, 37° C., approximately 20 hours, read-out: MIC
[14] = Enterobater cloaceae 2427, Iso-Sensitest Agar, 37° C., approximately 20 hours, read-out: MIC
[15] = ICB25701, Staphylococcus aureus ICB 25701, Iso-Sensitest Agar, 37° C., approximately 20 hours, read-out: MIC
[16] = Staphylococcus aureus, ATTC29213, 20 h

Row | MIC (E. coli 21 Bui) [µg/mL] | MIC (E. coli G293 Lh) [µg/mL] | MIC (Staph. Z433-4 LH) [µg/mL] | MIC (Staph. Ky 469 We) [µg/mL] | MIC (Staph. Z 318 Lh) [µg/mL] | SMILES | MIC [1, 7] [µg/mL] | MIC [2, 8] [µg/mL] | MIC [3, 9] [µg/mL] | MIC [4, 10] [µg/mL] | MIC (E. coli Neumann; [11]) [µg/mL] | MIC [5, 12] [µg/mL] | MIC (Enterobater aer.ICB 5240; [13]) [µg/mL] | MIC [6, 14] [µg/mL] | MIC [1, 15] [µg/mL] | MIC (Enterobater aer.ICB 5240; 20 h) [µg/mL] | further results
1 |  |  |  |  |  | C=Cc1c(F)c(N2C[C@@H]3CCCN[C@@H]3C2)c(F)c2c1c(=O)c(C(=O)O)cn2C1CC1 (relative stereo) [Compound 2, 1-cyclopropyl-7-(cis-2,8-diazabicyclo[4.3.0]non-8-yl)-6,8-difluoro-1,4-dihydro-4-oxo-5-vinyl-3-quinolinecarboxylic acid] | 1 (≈ 2.41 µM) | 0.125 (≈ 0.301 µM) | 0.06 (≈ 0.144 µM) | 0.125 (≈ 0.301 µM) | 0.06 (≈ 0.144 µM) | 0.06 (≈ 0.144 µM) | 16 (≈ 38.5 µM) | 0.125 (≈ 0.301 µM) |  |  | 
2 |  |  |  |  |  | C=Cc1c(F)c(N2CCN(C)CC2)c(F)c2c1c(=O)c(C(=O)O)cn2C1CC1 [Compound 1, 1-cyclopropyl-6,8-difluoro-1,4-dihydro-4-oxo-7-(4-methyl-1-piperazinyl)-4-oxo-5-vinyl-3-quinolinecarboxylic acid] |  |  |  |  | 0.06 (≈ 0.154 µM) |  |  |  | 64 (≈ 164 µM) | 32 (≈ 82.2 µM) | MIC ([2]; Enterococcus faecalis, 9790, 20 h): 1 µg/mL (≈ 2.57 µM); MIC [3, 16]: 0.25 µg/mL (≈ 0.642 µM); MIC ([4]; Enterococcus faecalis, 27101, 20 h): 1 µg/mL (≈ 2.57 µM); MIC ([5]; Staphylococcus aureus, 133, 20 h): 0.25 µg/mL (≈ 0.642 µM); MIC ([6]; 20 h): 0.25 µg/mL (≈ 0.642 µM)
3 |  |  |  |  |  | C=Cc1c(F)c(N2C[C@@H]3CCCN[C@@H]3C2)c(F)c2c1c(=O)c(C(=O)O)cn2C1CC1 [Compound 3, 1-cyclopropyl-7-(S,S-2,8-diazabicyclo[4.3.0]non-8-yl)-6,8-difluoro-1,4-dihydro-4-oxo-5-vinyl-3-quinolinecarboxylic acid] | 0.5 (≈ 1.2 µM) | 0.125 (≈ 0.301 µM) | 0.03 (≈ 0.0722 µM) | 0.125 (≈ 0.301 µM) | ≤ 0.015 | 0.03 (≈ 0.0722 µM) |  | 0.06 (≈ 0.144 µM) |  | 8 (≈ 19.3 µM) | 
4 | 16 | 32 | 0.03 | 0.03 | 2 | C=Cc1c(F)c(N2CCC(N)C2)c(F)c2c1c(=O)c(C(=O)O)cn2C1CC1.Cl (stereo not shown) [Compound 5, 7-(3-aminopyrrolidin-1-yl)-1-cyclopropyl-6,8-difluoro-1,4-dihydro-4-oxo-5-vinyl-3-quinolinecarboxylic acid hydrochloride] |  | 0.125 | ≤ 0.015 | 0.06 | ≤ 0.015 | 0.03 | 4 | ≤ 0.015 | 2 |  | 
5 | 4 (≈ 9.36 µM) | 8 (≈ 18.7 µM) | 0.015 (≈ 0.0351 µM) | 0.015 (≈ 0.0351 µM) | 0.06 (≈ 0.14 µM) | C=Cc1c(F)c(N2CC3CC=CC(N)C3C2)c(F)c2c1c(=O)c(C(=O)O)cn2C1CC1 (stereo not shown) [Compound 6, 7-(4-amino-1,3,3a,4,7,7a-hexahydro-isoindol-2-yl)-1-cyclopropyl-6,8-difluoro-1,4-dihydro-4-oxo-5-vinyl-3-quinolinecarboxylic acid] |  | 0.03 (≈ 0.0702 µM) | ≤ 0.015 | 0.03 (≈ 0.0702 µM) | 0.015 (≈ 0.0351 µM) | ≤ 0.015 | 4 (≈ 9.36 µM) | 0.125 (≈ 0.292 µM) | 0.03 (≈ 0.0702 µM) |  | 
6 |  |  |  |  |  | C=Cc1c(F)c(N2CC3CC=CC(NC)C3C2)c(F)c2c1c(=O)c(C(=O)O)cn2C1CC1 (stereo not shown) [Compound 7, 7-(4-methylamino-1,3,3a,4,7,7a-hexahydro-isoindol-2-yl)-1-cyclopropyl-6,8-difluoro-1,4-dihydro-4-oxo-5-vinyl-3-quinolinecarboxylic acid] |  | 0.03 (≈ 0.068 µM) | ≤ 0.015 | 0.03 (≈ 0.068 µM) | 0.03 (≈ 0.068 µM) | ≤ 0.015 |  | 0.125 (≈ 0.283 µM) | 0.03 (≈ 0.068 µM) | 8 (≈ 18.1 µM) | 
7 |  |  |  |  |  | C=Cc1c(F)c(N2CC3CCOC3(CN)C2)c(F)c2c1c(=O)c(C(=O)O)cn2C1CC1 (stereo not shown) [Compound 11, 7-(6a-aminomethylhexahydro-furo[2,3-c]pyrrol-5-yl)-1-cyclopropyl-6,8-difluoro-1,4-dihydro-4-oxo-5-vinyl-3-quinolinecarboxyllc acid hydrochloride] | 0.5 | 0.125 | 0.015 | 0.125 | 0.03 | 0.015 |  | 0.125 |  | 32 | 
8 |  |  |  |  |  | CCc1c(F)c(N2CCN(C)CC2)c(F)c2c1c(=O)c(C(=O)O)cn2C1CC1 [Compound K, 1-cyclopropyl-5-ethyl-6,8-difluoro-1,4-dihydro-7-(4-methyl-1-piperazinyl)-4-oxo-3-quinolinecarboxylic acid, reference compound] |  | 64 (≈ 164 µM) |  | 64 (≈ 164 µM) |  | 16 (≈ 40.9 µM) | ≤ 128 |  | 64 (≈ 164 µM) |  | MIC [3, 16]: 8 µg/mL (≈ 20.4 µM); MIC (E. coli Neumann; 20 h): 0.25 µg/mL (≈ 0.639 µM); MIC ([6]; 20 h): 1 µg/mL (≈ 2.55 µM)
9 | 32 (≈ 89 µM) | 32 (≈ 89 µM) | 0.25 (≈ 0.696 µM) | 0.12 (≈ 0.334 µM) | 8 (≈ 22.3 µM) | CCN1CCN(c2cc3c(cc2F)c(=O)c(C(=O)O)cn3C2CC2)CC1 [ENRO, enrofloxacin, reference compound] |  |  |  |  |  |  |  |  |  |  | 
